According to ChEMBL document CHEMBL1129720, “(S)-4-amino-5-chloro-3-iodo-2-methoxy-N-(1-azabicyclo[2.2.2]oct-3-yl)benzamide (TRIZAC), a high-affinity ligand for the 5-HT-3 receptor” (Bioorg Med Chem Lett, 1996):
pKd, pKi: −log10 of the molar value.

What was measured:
[1] = target: T1, 5-hydroxytryptamine receptor 3A (Rattus norvegicus, UniProt P35563); assay: Compound was tested for its binding affinity towards 5-hydroxytryptamine 3 receptor
T1 sequence (P35563 whole entry): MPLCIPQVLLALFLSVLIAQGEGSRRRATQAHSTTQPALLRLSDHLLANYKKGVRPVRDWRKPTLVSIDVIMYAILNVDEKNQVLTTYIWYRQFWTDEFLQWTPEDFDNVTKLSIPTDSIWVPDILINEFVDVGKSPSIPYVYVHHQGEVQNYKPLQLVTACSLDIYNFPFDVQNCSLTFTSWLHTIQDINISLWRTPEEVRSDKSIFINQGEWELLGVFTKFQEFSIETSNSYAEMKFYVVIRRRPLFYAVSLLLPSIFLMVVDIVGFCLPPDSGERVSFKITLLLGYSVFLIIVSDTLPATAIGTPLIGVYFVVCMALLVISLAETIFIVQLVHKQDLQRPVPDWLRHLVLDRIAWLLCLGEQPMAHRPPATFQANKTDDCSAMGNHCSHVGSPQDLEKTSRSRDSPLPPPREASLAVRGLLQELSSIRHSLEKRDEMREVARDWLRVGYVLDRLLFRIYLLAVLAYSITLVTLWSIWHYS

[2] = target: T1, 5-hydroxytryptamine receptor 3A; assay: Compound was tested for its binding affinity towards 5-HT-3 receptor in whole rat brain using (S)-[125I]-zacopride as the radioligand.
[3] = Apparent lipophilicity value of the compound.; format: physicochemical; conditions: octanol/water
[4] = target: T1, 5-hydroxytryptamine receptor 3A; assay: Compound was tested for its binding affinity towards 5-hydroxytryptamine 3 receptor in whole rat brain using [125I]DAIZAC as the radioligand.
[5] = target: T1, 5-hydroxytryptamine receptor 3A; assay: Compound was tested in vitro for its antagonistic activity against 5-hydroxytryptamine 3 receptor in rat CNS.; format: functional
[6] = target: T1, 5-hydroxytryptamine receptor 3A; assay: Compound was tested for its binding affinity towards 5-hydroxytryptamine 3 receptor in whole rat brain using (S)-[125I]-zacopride as the radioligand.
[7] = target: T1, 5-hydroxytryptamine receptor 3A; assay: Compound was tested in vitro for its antagonistic activity against 5-hydroxytryptamine 3 receptor; format: functional
[8] = target: T1, 5-hydroxytryptamine receptor 3A; assay: Compound was tested for its antagonistic activity against 5-hydroxytryptamine 3 receptor in rat brain using [3H]zacopride as the radioligand.; format: functional, tissue-based

COc1c(C(=O)N[C@@H]2CN3CCC2CC3)cc(Cl)c(N)c1I
pKi [1]: 10.30 | pKi [2]: 10.28 | logD [3]: 2.12 | pKi [4]: 10.12

COc1cc(N)c(I)cc1C(=O)NC1CN2CCC1CC2 (centres undefined)
pKd [5]: 8.59 | pKi [6]: 8.97 | pKi [4]: 8.86

COc1c(I)cc(Cl)cc1C(=O)N[C@@H]1CN2CCC1CC2
pKd [7]: 9.82

COc1cc(N)c(Cl)cc1C(=O)NC1CN2CCC1CC2 (centres undefined) [ZACOPRIDE]
pKd [8]: 9.22
